{"source": "patent US4308278A", "about": "“Anorexigenic 4-[(3,4-dialkoxyphenyl)alkyl]-2-imidazolidinone derivatives” (Gyogyszerkutato Intezet, priority 1978, dated 1981)", "key": {"[1]": {"system": "CFY rats", "assay": "anorexigenic effect in starved CFY rats (feed consumption / body weight)", "assay_type": "in vivo, rat", "details": "for Therapeutic ratio / ED50: oral; for Therapeutic ratio: LD50 and ED50 in rats; for ED50: Rattus norvegicus, rats, starved 24 h, dose halving food consumption or body weight gain vs control, read-out: ED50 orally in rats", "method": "For studying the anorexigenic effect the following method was used. CFY rats were starved for 24 hours, then the substance was orally administered, and half an hour later the animals were allowed to feed ad libitum during 5 hours when the feed consumption was measured. The change in the body weight of animals and the amount of the consumed solid, granulated food or sugar milk or peeled potato, respectively, were determined.\n*ED50 is the oral dose after administration of which, following a\nperiod of 24 hours of starvation, the rats consume the half amount of foo\nas compared to control, or the oral dose after the administration of whic\nthe body weight gain is a half of that of control."}, "[2]": {"system": "CFY rats", "details": "oral, literature value (footnotes 4, 5); cited from earlier work"}, "[3]": {"assay": "acute toxicity in mice", "details": "mouse, in vivo"}, "[4]": {"assay": "acute oral toxicity in rats", "details": "rat, in vivo"}, "[5]": {"system": "rats", "details": "oral, literature value (footnotes 2, 3); cited from earlier work"}, "[6]": {"system": "mice", "details": "oral, literature value (footnotes 1, 2, 5); cited from earlier work"}}, "note": "Where a name gives a salt, the structure may show the parent alone.", "data": [{"smiles": "OC1(c2ccc(Cl)cc2)c2ccccc2C2=NCCN21", "note": "(stereo not drawn) [Mazindol, 5-(4-chlorophenyl)-2,5-dihydro-3H-imidazo[2,1-a]isoindol-5-ol]", "values": [{"measurement": "Therapeutic ratio", "setting": "[1]", "value": 9.7}, {"measurement": "ED50 orally in rats", "setting": "[2]", "value": 25.8, "unit": "mg/kg"}, {"measurement": "LD50", "setting": "[3]; po", "value": 106, "unit": "mg/kg"}, {"measurement": "LD50", "setting": "[4]", "value": 250, "unit": "mg/kg"}]}, {"smiles": "CCNC(C)Cc1cccc(C(F)(F)F)c1", "note": "(racemic) [Fenfluramine, DL-N-ethyl-α-methyl-3-trifluoromethylbenzeneethanamine hydrochloride]", "values": [{"measurement": "ED50", "setting": "[1]", "value": 7.5, "unit": "mg/kg"}, {"measurement": "Therapeutic ratio", "setting": "[1]", "value": 20.3}, {"measurement": "Acute LD50 orally in rats", "setting": "[5]", "value": 138, "unit": "mg/kg"}, {"measurement": "Acute LD50 orally in mice", "setting": "[6]", "value": "170 to 290", "unit": "mg/kg"}, {"measurement": "LD50", "setting": "[3]; ip", "value": 100, "unit": "mg/kg"}]}, {"smiles": "COc1ccc(CC2CNC(=O)N2)cc1OC1CCCC1", "note": "(stereo not drawn) [Ia, 4-[(3-cyclopentyloxy-4-methoxyphenyl)methyl]-2-imidazolidinone]", "values": [{"measurement": "ED50", "setting": "[1]", "value": 10.5, "unit": "mg/kg"}, {"measurement": "therapeutic ratio (comparison in words)", "setting": "[1]; compared with anorexigenic drugs introduced so far", "value": "more favourable than that of the best anorexigenic drugs introduced so far"}, {"measurement": "anorexigenic effect", "setting": "[1]; in words", "value": "much more intense than that of the anorexigenic drugs introduced so far"}, {"measurement": "Therapeutic ratio", "setting": "[1]", "value": 72.5}, {"measurement": "LD50", "setting": "[3]; ip", "value": 680, "unit": "mg/kg"}, {"measurement": "LD50", "setting": "[3]; po", "value": 2050, "unit": "mg/kg"}, {"measurement": "LD50", "setting": "[4]", "value": 760, "unit": "mg/kg"}]}, {"smiles": "CC(C)(N)Cc1ccc(Cl)cc1.Cl", "note": "[Chlorphentermine, α,α-dimethyl-4-chlorobenzeneethanamine hydrochloride]", "values": [{"measurement": "Therapeutic ratio", "setting": "[1]", "value": 30.0}, {"measurement": "ED50 orally in rats", "setting": "[2]", "value": 12.5, "unit": "mg/kg"}, {"measurement": "Acute LD50 orally in mice", "setting": "[6]", "value": 250, "unit": "mg/kg"}, {"measurement": "LD50", "setting": "[4]", "value": 375, "unit": "mg/kg"}]}, {"smiles": "CC(N)Cc1ccccc1", "note": "[D-Amphetamine, D-benzeneethanamine sulphate]", "values": [{"measurement": "ED50", "setting": "[1]", "value": 5, "unit": "mg/kg"}, {"measurement": "Therapeutic ratio", "setting": "[1]", "value": 7.6}, {"measurement": "Acute LD50 orally in rats", "setting": "[5]", "value": 38, "unit": "mg/kg"}, {"measurement": "Acute LD50 orally in mice", "setting": "[6]", "value": 60, "unit": "mg/kg"}]}]}
